Where two headings read alike, the source gives them in different places. Some results are limits rather than exact numbers.

Experiment [1] deals with HMPV clinical isolate TN/1501/A1. Put plainly: HMPV antiviral assay Method-B (clinical isolate TN/1501/A1 in LLC-MK2 cells, ATP-Lite readout). It counts as cell-based, Human metapneumovirus (HMPV). To be noted: human metapneumovirus, LLC-MK2, 144 h, hMPV WT1501 (clinical isolate TN/1501/A1), 6 days. An outline of the steps:
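LLC-MK2 cells infected in suspension with TN/1501/A1 at MOI 0.014 in serum-free medium with 2 μg/mL TPCK-trypsin (final), incubated 6 days at 37° C. Compounds tested in duplicate, 10-point 3-fold dilutions from 10 μM. Cell health read by ATP-Lite luminescence, normalised to virus-only and cells-only controls; EC50 by four-parameter logistic fit.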

Experiment [2] deals with genotype A, "Long" strain RSV. Nature of the experiment: RSV-A assay (CPE protection in Hep-2 cells, ATPlite readout). It counts as cell-based, Human respiratory syncytial virus (HRSV). As to conditions: human respiratory syncytial virus, MOI 0.1, CPE protection. An outline of the steps:
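Hep-2 cells (8,000/well) infected with RSV Long strain at MOI 0.1 in the presence of 2-fold compound dilutions in duplicate. After 5 days, cell viability measured by ATPlite luminescence, normalized between virus-only and uninfected cell controls; EC50 reported.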
Background: Cellular ATP, detected with luciferase, serves as a proxy for viable cell number.

[3] abbreviates: genotype A “Long” strain RSV, read-out: Human RSV-A (“Long”).
Setting [4] is: RSV-A Long strain, read-out: Human RSV-A (“Long”) EC50.

For `COc1cc(C(=O)NC[C@](O)(c2cc3c(c(-c4ccc(F)cc4)n2)OC[C@]3(C)C(N)=O)C2(F)CC2)cc2sc(C)nc12` [Example 724], the EC50 in experiment [1] was below 500 nM; in experiment [2] (setting [3]) it was below 200 nM.
The matching figures for `COc1cc(C(=O)NC[C@](O)(c2cc3c(c(-c4ccc5c(c4)OC(F)(F)O5)n2)OC[C@]3(C)C(N)=O)C(F)(F)F)cc2sc(C)nc12` [Example 505]: below 500 nM and below 200 nM.
The matching figures for `COc1cc(C(=O)NC[C@](O)(c2cc3c(c(-c4cc(Cl)c(F)cc4F)n2)OC[C@]3(C)C(N)=O)C2CC2)cc2cn(C3CC3)nc12` [Example 661]: below 500 nM and below 200 nM.
Consider `COc1cc(C(=O)NC[C@](O)(c2cc3c(c(-c4c(F)ccc(Cl)c4F)n2)OC[C@]3(C)C(N)=O)C2CC2)cc2cc(Cl)c(C)nc12` [Example 1168], for which the EC50 in experiment [1] was below 500 nM; in experiment [2] (setting [4]), below 200 nM.
The matching figures for `C[C@]1(C(N)=O)COc2c1cc([C@@](O)(CNC(=O)c1cc(OC3CC3)c3nc(Cl)ccc3c1)C1CC1)nc2-c1ccc(F)c(F)c1Cl` [Example 1194]: above 500 nM and below 200 nM.
The like results for `Cc1cnc2c(Cl)cc(C(=O)NC[C@](O)(c3cc4c(c(-c5cccc(Br)c5F)n3)OC[C@]4(C)C(N)=O)C3CC3)cc2c1` [Example 1091] were, in that order, below 500 nM and below 200 nM.
Consider `COc1cc(C(=O)NC[C@](O)(c2cc3c(c(-c4c(F)ccc(Cl)c4F)n2)OC[C@]3(C)C(N)=O)C2CC2)cc2cc(Br)c(C)nc12` [Example 1169], for which the values for the EC50 in experiment [1] and in experiment [2] (setting [4]) were below 500 nM and below 200 nM, respectively.
As to `Cc1cnc2c(OC(F)(F)F)cc(C(=O)NC[C@](O)(c3cc4c(c(-c5ccc6c(c5)OC(F)(F)O6)n3)OC[C@]4(C)C(N)=O)C3CC3)cc2c1` [Example 542], the EC50 is below 500 nM in experiment [1] and below 200 nM in experiment [2] (setting [3]).
The matching figures for `COc1cc(C(=O)NC[C@](O)(c2cc3c(c(-c4ccc(F)c(Cl)c4F)n2)OC[C@]3(C)C(N)=O)C(F)(F)F)cc2cn(C3(F)CC3)nc12` [Example 550]: below 500 nM and below 200 nM.
The matching figures for `COc1cc(C(=O)NC[C@](O)(c2cc3c(c(-c4ccc(F)c(F)c4F)n2)OC[C@]3(C)C(N)=O)C2(F)CC2)cc2cn(C3(F)CC3)nc12` [Example 743]: below 500 nM and below 200 nM.
The matching figures for `C[C@]1(C(N)=O)COc2c1cc([C@@](O)(CNC(=O)c1cc(Cl)c3nn(C4CC4)cc3c1)C1CC1)nc2-c1ccc(F)c(Cl)c1F` [Example 559]: below 500 nM and below 200 nM.
As for `COc1cc(C(=O)NC[C@](O)(c2cc3c(c(-c4c(F)cc(Cl)cc4F)n2)OC[C@]3(C)C(N)=O)C2CC2)cc2cn(C3CC3)nc12` [Example 1155], the results for the EC50 in experiment [1] and in experiment [2] (setting [4]) were below 500 nM and below 200 nM, respectively.
Turning to `C[C@]1(C(N)=O)COc2c1cc([C@@](O)(CNC(=O)c1cc(OC3CC3)n3nc(C4CC4)cc3c1)C(F)(F)F)nc2-c1ccc2c(c1)OC(F)(F)O2` [Example 504], the EC50 is below 500 nM in experiment [1] and below 200 nM in experiment [2] (setting [3]).
`COc1cc(C(=O)NC[C@](O)(c2cc3c(c(-c4cccc5c4OC(F)(F)O5)n2)OC[C@]3(C)C(N)=O)C(F)(F)F)cc2cn(C3CC3)nc12` [Example 928]: the EC50 in experiment [1] was above 500 nM; in experiment [2] (setting [4]), below 200 nM.
The like results for `COc1cc(C(=O)NC[C@](O)(c2cc3c(c(-c4ccc(F)c(Cl)c4)n2)OC[C@]3(C)C(N)=O)C2CC2)cc2cn(C3(Cl)CC3)nc12` [Example 841] were, in that order, below 500 nM and below 200 nM.
Take `COc1cc(C(=O)NC[C@](O)(c2cc3c(c(-c4ccc5c(c4)OC(F)(F)O5)n2)OC[C@]3(C)C(N)=O)C(F)(F)F)cn2cc(C3CC3)nc12` [Example 639]: the EC50 in experiment [1] was below 500 nM; in experiment [2] (setting [3]) it was below 200 nM.
As for `COc1cc(C(=O)NC[C@@](O)(c2cc3c(c(-c4c(F)cccc4F)n2)OC[C@]3(C)C(N)=O)C(F)(F)F)cc2cn(C3CC3)nc12` [Example 1232], the EC50 in experiment [1] is above 500 nM; in experiment [2] (setting [4]) it was above 200 nM.
Regarding `C[C@]1(C(N)=O)COc2c1cc([C@@](O)(CNC(=O)c1cc(Cl)c3nn(C4CC4)cc3c1)C1(F)CC1)nc2-c1ccc(F)c(F)c1F` [Example 757], the figures for the EC50 in experiment [1] and in experiment [2] (setting [3]) were below 500 nM and below 200 nM, respectively.
The matching figures for `COc1cc(C(=O)NC[C@](O)(c2cc3c(c(-c4ccc(F)cc4Cl)n2)OC[C@]3(C)C(N)=O)C(F)(F)F)cc2cn(C(F)F)nc12` [Example 529]: below 500 nM and below 200 nM.
As to `COc1cc(C(=O)NC[C@](O)(c2cc3c(c(-c4cccc(Br)c4F)n2)OC[C@]3(C)C(N)=O)C2CC2)cc2cc(Cl)c(C)nc12` [Example 1092], the EC50 is below 500 nM in experiment [1] and below 200 nM in experiment [2] (setting [4]).
The like results for `COc1cc(C(=O)NC[C@](O)(c2cc3c(c(-c4cc(Br)c(F)cc4F)n2)OC[C@]3(C)C(N)=O)C2CC2)cc2cn(C3(F)CC3)nc12` [Example 1089] were, in that order, below 500 nM and below 200 nM.
The like results for `COc1cc(C(=O)NC[C@](O)(c2cc3c(c(-c4ccc5c(c4)OC(F)(F)O5)n2)OC[C@]3(C)C(N)=O)C2CC2)cc2cc(C)c(Cl)nc12` [Example 1074] were, in that order, below 500 nM and below 200 nM.
In the case of `COc1cc(C(=O)NCC(O)(c2cc3c(c(-c4cnn(C)c4)n2)OC[C@]3(C)C(N)=O)C(F)(F)F)cc2cn(C3CC3)nc12` (some centres unmarked) [Example 903], the values for the EC50 in experiment [1] and in experiment [2] (setting [4]) were above 500 nM and below 200 nM, respectively.
Regarding `COc1cc(C(=O)NC[C@](O)(c2cc3c(c(-c4ccc(F)cc4)n2)OC[C@]3(C(N)=O)C2CC2)C(F)(F)F)cc2cc(C3CC3)nn12` [Example 1066], the values for the EC50 in experiment [1] and in experiment [2] (setting [4]) were above 500 nM and above 200 nM, respectively.
With `COc1cc(C(=O)NC[C@](O)(c2cc3c(c(-c4cccc(F)c4Cl)n2)OC[C@]3(C)C(N)=O)C(F)(F)F)cc2cn(C(F)F)nc12` [Example 1120], the EC50 in experiment [1] is below 500 nM; in experiment [2] (setting [4]) it was below 200 nM.
As for `Cc1cnc2c(OC(F)F)cc(C(=O)NC[C@](O)(c3cc4c(c(-c5ccc(F)c(F)c5Cl)n3)OC[C@]4(C)C(N)=O)C3CC3)cc2c1` [Example 566], the EC50 in experiment [1] was below 500 nM; in experiment [2] (setting [3]) it was below 200 nM.
The like results for `COc1cc(C(=O)NC[C@](O)(c2cc3c(c(-c4cnc(Cl)c(Cl)c4)n2)OC[C@]3(C)C(N)=O)C(F)(F)F)cc2cn(C(F)F)nc12` [Example 589] were, in that order, above 500 nM and below 200 nM.
Consider `COc1cc(C(=O)NC[C@](O)(c2nc(-c3cc(Cl)c(F)cc3F)c3c(c2F)[C@@](C)(C(N)=O)CO3)C2CC2)cc2cn(C(F)F)nc12` [Example 1162], for which the EC50 was below 500 nM in experiment [1] and below 200 nM in experiment [2] (setting [4]).
`COc1cc(C(=O)NC[C@](O)(c2cc3c(c(-c4ccc(F)cc4)n2)OC[C@]3(C)C(=O)NCC(C)(C)O)C(F)(F)F)cc2cn(C3CC3)nc12` [Example 1170]: the results for the EC50 in experiment [1] and in experiment [2] (setting [4]) were above 500 nM and below 200 nM, respectively.
Turning to `COc1cc(C(=O)NC[C@](O)(c2cc3c(c(-c4cc(F)c(F)cc4F)n2)OC[C@]3(C)C(N)=O)C(F)(F)F)cc2cn(C3CC3)nc12` [Example 1135], the EC50 was below 500 nM in experiment [1] and below 200 nM in experiment [2] (setting [4]).
Turning to `COc1cc(C(=O)NC[C@@](O)(c2cc3c(c(-c4cccc(Cl)c4F)n2)OC[C@]3(C)C(N)=O)C(F)(F)F)cc2cn(C3CC3)nc12` [Example 921], the EC50 in experiment [1] is above 500 nM; in experiment [2] (setting [4]), above 200 nM.
